Data set [1] addresses T1, Androgen receptor W742L (Homo sapiens, UniProt P10275, W742L).
T1 construct: expressed in transfected cells; host or cells: A549, transduced, puromycin selected
T1 sequence (P10275 1-920 W742L): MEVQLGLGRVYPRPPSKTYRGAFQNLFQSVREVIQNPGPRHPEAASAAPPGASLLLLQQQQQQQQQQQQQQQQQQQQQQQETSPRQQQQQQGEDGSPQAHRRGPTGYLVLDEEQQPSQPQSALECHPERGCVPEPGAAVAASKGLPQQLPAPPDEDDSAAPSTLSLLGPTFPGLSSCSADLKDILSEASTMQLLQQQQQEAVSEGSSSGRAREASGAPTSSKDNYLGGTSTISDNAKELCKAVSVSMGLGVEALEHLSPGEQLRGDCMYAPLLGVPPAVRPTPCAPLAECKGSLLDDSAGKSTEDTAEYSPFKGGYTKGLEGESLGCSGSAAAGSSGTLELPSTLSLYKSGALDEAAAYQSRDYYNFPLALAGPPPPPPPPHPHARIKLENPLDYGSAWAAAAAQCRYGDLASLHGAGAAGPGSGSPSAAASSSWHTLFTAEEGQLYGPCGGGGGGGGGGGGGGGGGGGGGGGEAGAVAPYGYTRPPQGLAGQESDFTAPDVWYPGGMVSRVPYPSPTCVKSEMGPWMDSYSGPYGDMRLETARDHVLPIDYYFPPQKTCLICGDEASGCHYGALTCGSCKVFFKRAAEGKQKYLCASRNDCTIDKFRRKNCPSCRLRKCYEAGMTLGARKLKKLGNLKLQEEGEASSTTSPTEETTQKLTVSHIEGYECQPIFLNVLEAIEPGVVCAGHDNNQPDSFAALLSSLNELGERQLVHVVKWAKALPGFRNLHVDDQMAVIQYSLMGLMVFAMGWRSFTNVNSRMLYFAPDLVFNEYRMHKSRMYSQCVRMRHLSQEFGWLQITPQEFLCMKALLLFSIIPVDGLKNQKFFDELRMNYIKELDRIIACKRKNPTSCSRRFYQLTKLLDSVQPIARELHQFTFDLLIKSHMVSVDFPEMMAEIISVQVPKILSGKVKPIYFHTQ
Kind of data set: Degradation of overexpressed Androgen Receptor in A549 cells (HiBiT), W742L. Format: cell-based. The note with it: A549 cells overexpressing AR W742L, cycloheximide, 24 hours. The method, then: (§1) A549 cells were transduced to express wild type androgen receptor and Androgen receptor containing the following mutations (L702H, H875Y W742C W742L F877L, T878A and T878A/H875Y) with HiBiT tags. Transduced cells following puromycin selection were maintained in a humidified incubator (at 37° C. and 5% CO2 in the DMEM medium supplemented with 1% (v/v) Pen/Strep, 1% (v/v) Glutamax and 10% (v/v) FBS. A549 cells expressing each AR construct were detached from plate and counted. Cell suspensions at density 0.2 million per mL were prepared. Cell suspension was supplemented with 100 μg/mL of cycloheximide to block protein synthesis. Cells were preincubated with cycloheximide for 1 hr before seeding. Cells were seeded onto 384-well plate at density of 5,000 in 25 μL per well. A two fold serial dilution of test compounds, starting from 1 μM (row A) in 2-fold serial dilution series across the column using Tecan D300e dispenser. […]
(§2) Nano-Glo HiBiT Lytic reagent was prepared by adding LgBiT protein and Nano-Glo® substrate to lytic buffer pre-equilibrated at room temperature following manufacturer protocol (https://www.promega.co.uk/resources/protocols/technical-manuals/101/nanoglo-luciferase-assay-system-protocol). […] The plates were then centrifuged (100×G, 1 min) and incubated on shaker for 10 mins before taking readings on Pherastar Luminescence microplate reader. […]

In data set [2] the target is T2, wild type androgen receptor (Homo sapiens, UniProt P10275).
T2 construct: expressed in transfected cells; host or cells: A549, transduced, puromycin selected
T2 sequence (P10275 1-920): T1 sequence (P10275 1-920 W742L) with L742W
Kind of data set: Degradation of overexpressed Androgen Receptor in A549 cells (HiBiT), wild type. Format: cell-based. The note with it: A549 cells overexpressing AR WT, cycloheximide, 24 hours. On the procedure: as §1, §2
In general terms: With HiBiT, luminescence reflects the tagged protein that the partner subunit can reach.

Data set [3] in a line: in vivo. The conditions noted are these: male, Wistar Han, rat, po.
Procedure: Systemic exposure of various forms of N-((1r,3r)-3-(4-cyano-3-methoxyphenoxy)-2,2,4,4-tetramethylcyclobutyl)-4-(4-((4-(4-(2,4-dioxotetrahydropyrimidin-1(2H)-yl)-1H-pyrazolo[4,3-c]pyridin-1-yl)piperidin-1-yl)methyl)piperidin-1-yl)-3-fluorobenzamide were assessed following oral administration of 30 mg/kg of a suspension formulation (1% methylcellulose (aq)) or following oral administration of 35 mg/kg of a suspension formulation (100% PEG400) in the male Wistar Han rat. […] The sampling period was 72 hours, and the data is reported in the attached table as mean±SD (n=3).

Numbering of substitutions follows the chain as printed.

As usually defined, the Cmax is the peak of the concentration-time curve. As a reminder, the Tmax is the time from dosing to the highest level.

Regarding `COc1cc(O[C@H]2C(C)(C)[C@H](NC(=O)c3ccc(N4CCC(CN5CCC(n6ncc7c(N8CCC(=O)NC8=O)nccc76)CC5)CC4)c(F)c3)C2(C)C)ccc1C#N` [Example 20, N-((1r,3r)-3-(4-Cyano-3-methoxyphenoxy)-2,2,4,4-tetramethylcyclobutyl)-4-(4-((4-(4-(2,4-dioxotetrahydropyrimidin-1(2H)-yl)-1H-pyrazolo[4,3-c]pyridin-1-yl)piperidin-1-yl)methyl)piperidin-1-yl)-3-fluorobenzamide], the “Summary pXC50” value in data set [1] was 8.93. For the same compound, the “Summary pXC50” value in data set [2] came out at 8.95. In data set [3] (30 mg/kg), the AUC0-t amounted to 7220 ± 1220 ng·h/mL, the highest level (Cmax) was 318 ± 50 ng/mL and the Tmax worked out at 8 h. Further, in data set [3] (35 mg/kg), the AUC0-t turned out to be 26200 ± 1750 ng·h/mL, the Cmax amounted to 849 ± 98 ng/mL and the Tmax worked out at 8.7 ± 3 h.
